Tests used:
Format in all cases: physicochemical
[1] = Stability of BO-653 in various fat and oils (influence of oxygen, accelerated test at 80°C, HPLC); details: 17 hours
Description: The influence of oxygen on the stability of BO-653 in various fat and oils was tested. BO-653 was dissolved in soybean oil, olive oil, MCT, tricaprylin, and linoleic acid separately to give a concentration of 50% by weight. 70 mg of each of the solutions was placed into individual 5 cc glass bottles. Separately, 35 mg of BO-653 was directly placed into a 5 cc glass bottle. The samples were prepared in duplicate. One set of samples were subjected to an argon replacement of the headspace of the bottles and then tightly sealed, while the other set of samples were sealed without argon replacement. Accelerated test at 80°C was conducted using all of the samples.

[2] = Stability of seamed soft capsule formulations of BO-653 (3): Formulation 4, various storage conditions, HPLC
[3] = Stability of seamed soft capsule formulation of BO-653 (1): Formulations 1 and 2, accelerated tests, HPLC; details: 100% oxygen atmosphere
Description: Formulations 1 and 2 obtained in Example 1 were tested for their stability under the conditions below: Condition 1: • Formulation 1 was left at 40°C in a 100% oxygen atmosphere. Condition 2: • Formulation 1 was left at 50°C in a 100% oxygen atmosphere. Condition 3: • Formulation 2 was left at 50°C in a 100% oxygen atmosphere.
As a control, BO-653 was dissolved in soybean oil to give a concentration of 10% by weight and the solution was left at 40°C in a 100% oxygen atmosphere in the form that the solution was not filled into a soft capsule.

[4] = Stability of seamed soft capsule formulations of BO-653 (2): Formulation 3, shell thickness and glycerin content, HPLC; details: Formulation 3 (50% w/w in soybean oil)
Description: Formulation 3 obtained in Example 1 was stored at 50°C in a 100% oxygen atmosphere.

4,6-di-tert-butyl-2,2-di-n-pentyl-5-hydroxy-2,3-dihydrobenzofuran [BO-653]
residual ratio of BO-653 ([1]; 50% by weight in soybean oil, without argon replacement (presence of oxygen)): Relatively high stability
residual ratio of BO-653 ([1]; BO-653 alone or 50% by weight in soybean oil, olive oil, MCT, tricaprylin or linoleic acid, with argon replacement (absence of oxygen)): little loss
Residual ratio (%) of BO-653 ([2]; Formulation 4, BO-653 content in filling solution 4% by weight, 40°C, RH75% - 1M): 99.0%
Residual ratio (%) of BO-653 ([2]; Formulation 4, BO-653 content in filling solution 4% by weight, 50°C, 100% oxygen atmosphere-1M): 100.0%
Residual ratio (%) of BO-653 ([2]; Formulation 4, BO-653 content in filling solution 4% by weight, irradiation with 1,200,000 lux.hrs white light): 100.0%
Residual ratio (%) of BO-653 ([2]; Formulation 4, BO-653 content in filling solution 4% by weight, irradiation with 1,200,000 lux.hrs white light followed by 400 W.hrs/m^2 UV rays): 98.0%
Residual ratio (%) of BO-653 ([2]; Formulation 4, BO-653 content in filling solution 40% by weight, 40°C, RH75% - 1M): 100.1%
Residual ratio (%) of BO-653 ([2]; Formulation 4, BO-653 content in filling solution 40% by weight, 50°C, 100% oxygen atmosphere-1M): 100.7%
Residual ratio (%) of BO-653 ([2]; Formulation 4, BO-653 content in filling solution 40% by weight, irradiation with 1,200,000 lux.hrs white light): 100.0%
Residual ratio (%) of BO-653 ([2]; Formulation 4, BO-653 content in filling solution 40% by weight, irradiation with 1,200,000 lux.hrs white light followed by 400 W.hrs/m^2 UV rays): 99.7%
Residual ratio (%) of BO-653 ([2]; Formulation 4, BO-653 content in filling solution 80% by weight, 40°C, RH75% - 1M): 99.8%
Residual ratio (%) of BO-653 ([2]; Formulation 4, BO-653 content in filling solution 80% by weight, 50°C, 100% oxygen atmosphere-1M): 101.0%
Residual ratio (%) of BO-653 ([2]; Formulation 4, BO-653 content in filling solution 80% by weight, irradiation with 1,200,000 lux.hrs white light): 99.5%
Residual ratio (%) of BO-653 ([2]; Formulation 4, BO-653 content in filling solution 80% by weight, irradiation with 1,200,000 lux.hrs white light followed by 400 W.hrs/m^2 UV rays): 99.8%
Residual ratio (%) of BO-653 ([3]; Condition 1: Formulation 1 (10% w/w in soybean oil, seamed soft capsule), 40°C, 1 month): 100.7%
Residual ratio (%) of BO-653 ([3]; Condition 2: Formulation 1 (10% w/w in soybean oil, seamed soft capsule), 50°C, 2 weeks): 99.6%
Residual ratio (%) of BO-653 ([3]; Condition 3: Formulation 2 (10% w/w in MCT, seamed soft capsule), 50°C, 3 weeks): 92.8%
Residual ratio (%) of BO-653 ([3]; Control: 10% by weight solution in soybean oil not filled into a soft capsule, 40°C, 1 month): < 0.2%
Content (%) of BO-653 after left at 50°C in a 100% oxygen atmosphere for 1 month ([4]; Capsule No. 1: thickness 26 x 10^-3 inch (66 x 10^-2 mm), glycerin content 30.0): 99.4%
Content (%) of BO-653 after left at 50°C in a 100% oxygen atmosphere for 1 month ([4]; Capsule No. 2: thickness 30 x 10^-3 inch (76 x 10^-2 mm), glycerin content 30.0): 99.9%
Content (%) of BO-653 after left at 50°C in a 100% oxygen atmosphere for 1 month ([4]; Capsule No. 3: thickness 34 x 10^-3 inch (86 x 10^-2 mm), glycerin content 30.0): 99.7%
Content (%) of BO-653 after left at 50°C in a 100% oxygen atmosphere for 1 month ([4]; Capsule No. 4: thickness 26 x 10^-3 inch (66 x 10^-2 mm), glycerin content 44.2): 98.8%
Content (%) of BO-653 after left at 50°C in a 100% oxygen atmosphere for 1 month ([4]; Capsule No. 5: thickness 30 x 10^-3 inch (76 x 10^-2 mm), glycerin content 44.2): 100.0%
Content (%) of BO-653 after left at 50°C in a 100% oxygen atmosphere for 1 month ([4]; Capsule No. 6: thickness 34 x 10^-3 inch (86 x 10^-2 mm), glycerin content 44.2): 100.8%
Content (%) of BO-653 after left at 50°C in a 100% oxygen atmosphere for 1 month ([4]; Capsule No. 8: thickness 30 x 10^-3 inch (76 x 10^-2 mm), glycerin content 56.4): 97.0%
Content (%) of BO-653 after left at 50°C in a 100% oxygen atmosphere for 1 month ([4]; Capsule No. 9: thickness 34 x 10^-3 inch (86 x 10^-2 mm), glycerin content 56.4): 98.8%

Reference: patent EP1172104A1, “SEAM SOFT CAPSULE PREPARATIONS CONTAINING DIHYDROBENZOFURAN DERIVATIVE” (CHUGAI SEIYAKU KABUSHIKI KAISHA, priority 1999, dated 2000)
